Measurements from PubChem BioAssay (NCI).
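Following 48 hours of exposure in 96-well plates, responses at five concentrations were used to interpolate endpoints linearly. Here, GI50 denotes the concentration required for 50% inhibition of growth. TGI marks complete inhibition of growth.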

Legend:
Assay in all cases: DTP human tumour cell line panel, 48 h
[1] = tested on: 786-0 renal
[2] = tested on: A549 NSCLC
[3] = tested on: CAKI-1 renal
[4] = tested on: DLD-1 colon
[5] = tested on: DMS 273 small cell lung
[6] = tested on: EKVX NSCLC
[7] = tested on: HCC-2998 colon
[8] = tested on: HCT-15 colon
[9] = tested on: HOP-18 NSCLC
[10] = tested on: HT29 colon
[11] = tested on: IGROV1 ovarian
[12] = tested on: KM12 colon
[13] = tested on: LOX IMVI melanoma
[14] = tested on: M14 melanoma
[15] = tested on: M19-MEL melanoma
[16] = tested on: MALME-3M melanoma
[17] = tested on: MOLT-4 leukemia
[18] = tested on: NCI-H226 lung
[19] = tested on: OVCAR-3 ovarian
[20] = tested on: OVCAR-4 ovarian
[21] = tested on: OVCAR-5 ovarian
[22] = tested on: OVCAR-8 ovarian
[23] = tested on: RPMI-8226 leukemia
[24] = tested on: RXF 393 renal
[25] = tested on: SF-295 CNS
[26] = tested on: SF-539 CNS
[27] = tested on: SK-MEL-2 melanoma
[28] = tested on: SK-MEL-28 melanoma
[29] = tested on: SK-MEL-5 melanoma
[30] = tested on: SN12C renal
[31] = tested on: SNB-19 CNS
[32] = tested on: SNB-75 CNS
[33] = tested on: SW-620 colon
[34] = tested on: TK-10 renal
[35] = tested on: UACC-257 melanoma
[36] = tested on: UACC-62 melanoma
[37] = tested on: UO-31 renal
[38] = tested on: A498 renal
[39] = tested on: ACHN renal
[40] = tested on: CCRF-CEM leukemia
[41] = tested on: COLO 205 colon
[42] = tested on: DMS 114 small cell lung
[43] = tested on: HCT-116 colon
[44] = tested on: HL-60(TB) leukemia
[45] = tested on: HOP-62 NSCLC
[46] = tested on: HOP-92 NSCLC
[47] = tested on: K-562 leukemia
[48] = tested on: KM20L2 colon
[49] = tested on: LXFL 529 NSCLC
[50] = tested on: NCI-H23 lung
[51] = tested on: NCI-H460 lung
[52] = tested on: NCI-H522 lung
[53] = tested on: SF-268 CNS
[54] = tested on: SK-OV-3 ovarian
[55] = tested on: SNB-78 CNS
[56] = tested on: U251 CNS
[57] = tested on: SR leukemia
[58] = tested on: XF 498 CNS

In the case of `O=C1C(=C([O-])c2ccccc2)C(=O)c2ccccc21.O=C1C(=C([O-])c2ccccc2)C(=O)c2ccccc21.[Mn+2]`, the GI50 [1] is reported as > 100 µM, the TGI [1] is reported as > 100 µM and the GI50 [2] is reported as > 100 µM. The TGI [2] was > 100 µM, the GI50 [3] was > 100 µM and the TGI [3] was > 100 µM. The GI50 [4] was 62 µM, the TGI [4] was > 100 µM and the GI50 [5] was 30.5 µM. For the same compound, the TGI [5] was > 100 µM, the GI50 [6] was > 100 µM and the TGI [6] was > 100 µM. The GI50 [7] was > 100 µM, the TGI [7] was > 100 µM and the GI50 [8] was 55.4 µM. For the same compound, the TGI [8] was > 100 µM, the GI50 [9] was 35.4 µM and the TGI [9] was > 100 µM. For the same compound, the GI50 [10] was 43.2 µM, the TGI [10] was > 100 µM and the GI50 [11] was > 100 µM. For the same compound, the TGI [11] was > 100 µM, the GI50 [12] was 72.9 µM and the TGI [12] was > 100 µM. For the same compound, the GI50 [13] was > 100 µM, the TGI [13] was > 100 µM and the GI50 [14] was 70.4 µM. For the same compound, the TGI [14] was > 100 µM, the GI50 [15] was > 100 µM and the TGI [15] was > 100 µM. For the same compound, the GI50 [16] was > 100 µM, the TGI [16] was > 100 µM and the GI50 [17] was > 100 µM. For the same compound, the TGI [17] was > 100 µM, the GI50 [18] was 32 µM and the TGI [18] was > 100 µM. For the same compound, the GI50 [19] was 40.5 µM, the TGI [19] was > 100 µM and the GI50 [20] was > 100 µM. For the same compound, the TGI [20] was > 100 µM, the GI50 [21] was > 100 µM and the TGI [21] was > 100 µM. For the same compound, the GI50 [22] was > 100 µM, the TGI [22] was > 100 µM and the GI50 [23] was > 100 µM. For the same compound, the TGI [23] was > 100 µM, the GI50 [24] was 89.6 µM and the TGI [24] was > 100 µM. For the same compound, the GI50 [25] was 74.6 µM, the TGI [25] was > 100 µM and the GI50 [26] was > 100 µM. For the same compound, the TGI [26] was > 100 µM, the GI50 [27] was > 100 µM and the TGI [27] was > 100 µM. The GI50 [28] was 93.8 µM, the TGI [28] was > 100 µM and the GI50 [29] was 16.1 µM. The TGI [29] was > 100 µM, the GI50 [30] was 91.6 µM and the TGI [30] was > 100 µM. For the same compound, the GI50 [31] was 76.7 µM, the TGI [31] was > 100 µM and the GI50 [32] was > 100 µM. For the same compound, the TGI [32] was > 100 µM, the GI50 [33] was > 100 µM and the TGI [33] was > 100 µM. For the same compound, the GI50 [34] was > 100 µM, the TGI [34] was > 100 µM and the GI50 [35] was 22.6 µM. The TGI [35] was 48.4 µM, the GI50 [36] was 5.48 µM and the TGI [36] was > 100 µM. For the same compound, the GI50 [37] was 43.9 µM and the TGI [37] was > 100 µM.

`O=C1Cc2nc(CO)c(CO)c(CO)c2CO1` was tested, and the TGI [1] was > 100 µM, the TGI [38] was > 100 µM and the TGI [2] was > 100 µM. The TGI [39] was > 100 µM, the TGI [3] was > 100 µM and the TGI [40] was > 100 µM. The TGI [41] was > 100 µM, the TGI [4] was > 100 µM and the TGI [42] was > 100 µM. The TGI [5] was > 100 µM, the TGI [6] was > 100 µM and the TGI [7] was > 100 µM. The TGI [43] was > 100 µM, the TGI [8] was > 100 µM and the TGI [44] was > 100 µM. For the same compound, the TGI [9] was > 100 µM, the TGI [45] was > 100 µM and the TGI [46] was > 100 µM. The TGI [10] was > 100 µM, the TGI [11] was > 100 µM and the TGI [47] was > 100 µM. The TGI [12] was > 100 µM, the TGI [48] was > 100 µM and the TGI [13] was > 100 µM. For the same compound, the TGI [49] was > 100 µM, the TGI [14] was > 100 µM and the TGI [15] was > 100 µM. For the same compound, the TGI [16] was > 100 µM, the TGI [50] was > 100 µM and the TGI [51] was > 100 µM. For the same compound, the TGI [52] was > 100 µM, the TGI [19] was > 100 µM and the TGI [21] was > 100 µM. For the same compound, the TGI [22] was > 100 µM, the TGI [23] was > 100 µM and the TGI [53] was > 100 µM. The TGI [25] was > 100 µM, the TGI [26] was > 100 µM and the TGI [27] was > 100 µM. For the same compound, the TGI [28] was > 100 µM, the TGI [29] was > 100 µM and the TGI [54] was > 100 µM. The TGI [30] was > 100 µM, the TGI [31] was > 100 µM and the TGI [32] was > 100 µM. For the same compound, the TGI [55] was > 100 µM, the TGI [33] was > 100 µM and the TGI [34] was > 100 µM. The TGI [56] was > 100 µM, the TGI [35] was > 100 µM and the TGI [36] was > 100 µM. The TGI [37] was > 100 µM.

`COc1ccc(N2C(=O)C3c4[nH]c5ccccc5c4C4CC(C)(C)CC(C)(C)C4C3C2=O)cc1` (stereo unspecified) gave a TGI [1] of 28.3 µM, a TGI [38] of 30.1 µM and a TGI [2] of 27.3 µM. For the same compound, the TGI [39] was 31.9 µM, the TGI [40] was > 100 µM and the TGI [41] was 34.8 µM. The TGI [4] was > 100 µM, the TGI [42] was 97.7 µM and the TGI [5] was 23.8 µM. The TGI [6] was 38.2 µM, the TGI [7] was > 100 µM and the TGI [43] was 30.4 µM. The TGI [8] was > 100 µM, the TGI [44] was > 100 µM and the TGI [9] was 36.5 µM. The TGI [45] was 31.3 µM, the TGI [46] was 28.7 µM and the TGI [10] was > 100 µM. For the same compound, the TGI [11] was 65.5 µM, the TGI [47] was > 100 µM and the TGI [48] was > 100 µM. It also gave a TGI [49] of 27.7 µM, a TGI [14] of 41.8 µM and a TGI [15] of 33.7 µM. It also gave a TGI [16] of 36.3 µM, a TGI [17] of 36.6 µM and a TGI [18] of 29.3 µM. The TGI [50] was 33.9 µM, the TGI [52] was 38.1 µM and the TGI [20] was 26.2 µM. For the same compound, the TGI [22] was 11.1 µM, the TGI [23] was > 100 µM and the TGI [24] was 33.1 µM. It also gave a TGI [53] of 54 µM, a TGI [25] of 21.4 µM and a TGI [26] of 27.2 µM. It also gave a TGI [28] of 27.7 µM, a TGI [29] of 41.3 µM and a TGI [54] of 38.2 µM. The TGI [30] was 33.2 µM, the TGI [31] was 52.7 µM and the TGI [32] was 34.5 µM. It also gave a TGI [55] of 55.3 µM, a TGI [57] of 25.7 µM and a TGI [33] of 71.7 µM. For the same compound, the TGI [56] was 31.2 µM, the TGI [35] was 46.1 µM and the TGI [36] was 27.6 µM. The TGI [37] was > 100 µM and the TGI [58] was 36.8 µM.
